Assays:
Assay type in all cases: in vivo, Wister rats
[1] = tested on: TLR pathway (TLR 2, TLR 4, MYD 88, and TRIF); test: TLR pathway protein expression by Western blot in cardiac tissue, ISO-induced MI
Procedure: Animals were distributed into five groups randomly (n=6). The animals in normal and eucalyptol control groups were administered either saline or eucalyptol for 3 weeks and then saline (s.c) on the last two days of the experiment (20th and 21st days). The animals in the myocardial infarction (MI) control group were given saline orally for 3 weeks, then challenged with Isoproterenol (ISO) (85 mg/kg, s.c.) as stated before on the 20th and 21st days to induce MI. The animals in the eucalyptol pretreatment groups were pretreated with eucalyptol (either 100 or 200 mg/kg) orally for 3 weeks then confronted with ISO (85 mg/kg s.c.) on the last two days of the experiment. All experimental animals were killed 24 hrs after the second dose of ISO. For detection of the Toll-Like Receptors pathway protein expressions, Western blot was performed according to known methods. Values were mentioned as mean SEM (n=6). Densitometry inquiry was accomplished via Image software for Western analysis. Statistical analysis appraisal was done via GraphPad Prism 5.

[2] = tested on: Bax, Bcl2, Caspase 3 and 9; test: Apoptotic status within the myocardium in ISO-induced MI (Bax, Bcl-2 mRNA; Caspase 3 and 9)
Procedure: (§1) Animals were distributed into five groups randomly (n=6). The animals in normal and eucalyptol control groups were administered either saline or eucalyptol for 3 weeks and then saline (s.c) on the last two days of the experiment (20th and 21st days). The animals in the myocardial infarction (MI) control group were given saline orally for 3 weeks, then challenged with Isoproterenol (ISO) (85 mg/kg, s.c.) as stated before on the 20th and 21st days to induce MI. The animals in the eucalyptol pretreatment groups were pretreated with eucalyptol (either 100 or 200 mg/kg) orally for 3 weeks then confronted with ISO (85 mg/kg s.c.) on the last two days of the experiment. All experimental animals were killed 24 hrs after the second dose of ISO. The extracted heart tissues were homogenated in 10% phosphate buffer to be used for the measurement of numerous biochemical parameters, including cardiac enzymes, apoptotic markers, inflammatory mediators' markers, and total protein. ELISA kits were consumed to measure cardiac enzymes: CPK, CK-MB, cTnT, and cTnI; apoptotic markers: Caspase 3 and Caspase 9 and inflammatory mediators: TNF-α, IL-1β, and NFκB. All ELISA Kits were used according to the manufacturer's protocols and using a microplate reader SpectraMax i.3× (Molecular Devices, USA). Real-time PCR was preformed according to known techniques. Primer sequences used in this study were as follows: Bcl-2-[…] NO: 1), Bcl-2-[…] ID NO:2), Bax-[…] NO: 3), Bax-[…] ID NO: 4), […] ID NO: 5), […] ID NO: 6), […] ID NO: 7), […] ID NO: 8), MyD88 -[…] ID NO: 9), […] ID NO: 11), […] ID NO: 12), β-[…] NO: 13), β-[…] ID NO: 14).

[3] = tested on: ISO induced MI animals; test: Heart rate and ECG recording in ISO-induced myocardial infarction; conditions: for Heart Rate / P Wave / P-R interval / QRS complex / QT interval / R-R interval / ST segment: mean ± SD, n=6
Procedure: Animals were distributed into five groups randomly (n=6). The animals in normal and eucalyptol control groups were administered either saline or eucalyptol for 3 weeks and then saline (s.c) on the last two days of the experiment (20th and 21st days). The animals in the myocardial infarction (MI) control group were given saline orally for 3 weeks, then challenged with Isoproterenol (ISO) (85 mg/kg, s.c.) as stated before on the 20th and 21st days to induce MI. The animals in the eucalyptol pretreatment groups were pretreated with eucalyptol (either 100 or 200 mg/kg) orally for 3 weeks then confronted with ISO (85 mg/kg s.c.) on the last two days of the experiment. All experimental animals were killed 24 hrs after the second dose of ISO. At the end of the experiments, urethane-anesthetized rats (1.5 g/kg) were prone positioned to obtain uninterrupted ECG recordings using noninvasive computerized ECG apparatus from. Kent Scientific (USA). Heart rate and ECG components including ST segment, wave. QT, P-R and R-R intervals, and QRS complex were electronically measured.

[4] = tested on: ISO induced MI animals; test: Infarct size determination (TTC staining) in ISO-induced MI; conditions: pretreatment 100, 200 mg/kg, 21 days, vs ISO induced MI group
Procedure: Animals were distributed into five groups randomly (n=6). The animals in normal and eucalyptol control groups were administered either saline or eucalyptol for 3 weeks and then saline (s.c) on the last two days of the experiment (20th and 21st days). The animals in the myocardial infarction (MI) control group were given saline orally for 3 weeks, then challenged with Isoproterenol (ISO) (85 mg/kg, s.c.) as stated before on the 20th and 21st days to induce MI. The animals in the eucalyptol pretreatment groups were pretreated with eucalyptol (either 100 or 200 mg/kg) orally for 3 weeks then confronted with ISO (85 mg/kg s.c.) on the last two days of the experiment. All experimental animals were killed 24 hrs after the second dose of ISO. Subsequent to ECG determination, blood samples were collected and the hearts were directly removed and balanced using an animal weighing scale prior to storage. The obtained blood samples were centrifuged and the serum from different experimental groups was frozen in −80° C. for further biochemical examinations. Frozen hearts were cut into 4-5 transverse incubated in 10% TTC (dissolved phosphate buffer, pH 7.4) for 25 min. at room temperature, fixed using 10% formaldehyde, and finally quantified using Image J® program (National Institutes of Health, University of Wisconsin).

[5] = tested on: HSP-60 and inflammatory markers (TNF-α, IL-6 and NFκB); test: HSP-60 and inflammatory mediators in ISO-induced MI
Procedure: (§2) Animals were distributed into five groups randomly (n=6). The animals in normal and eucalyptol control groups were administered either saline or eucalyptol for 3 weeks and then saline (s.c) on the last two days of the experiment (20th and 21st days). The animals in the myocardial infarction (MI) control group were given saline orally for 3 weeks, then challenged with Isoproterenol (ISO) (85 mg/kg, s.c.) as stated before on the 20th and 21st days to induce MI. The animals in the eucalyptol pretreatment groups were pretreated with eucalyptol (either 100 or 200 mg/kg) orally for 3 weeks then confronted with ISO (85 mg/kg s.c.) on the last two days of the experiment. All experimental animals were killed 24 hrs after the second dose of ISO. The extracted heart tissues were homogenated in 10% phosphate buffer to be used for the measurement of numerous biochemical parameters, including cardiac enzymes, apoptotic markers, inflammatory mediators' markers, and total protein. ELISA kits were consumed to measure cardiac enzymes: CPK, CK-MB, cTnT, and cTnI; apoptotic markers: Caspase 3 and Caspase 9 and inflammatory mediators: TNF-α, IL-1β, and NFκB. All ELISA Kits were used according to the manufacturer's protocols and using a microplate reader SpectraMax i.3× (Molecular Devices, USA).

[6] = tested on: ISO induced MI animals; test: Cardiac enzymes by ELISA in ISO-induced MI
Procedure: as §2

[7] = tested on: TLR pathway (TLR 2, TLR 4, MYD 88, and TRIF); test: TLR pathway mRNA expression by real-time PCR in ISO-induced MI; conditions: pretreatment 100, 200 mg/kg, 21 days, vs ISO induced MI control group
Procedure: as §1, with “ISO.” for “ISO. The extracted heart tissues were homogenated in 10% phosphate buffer to be used for the measurement of numerous biochemical parameters, including cardiac enzymes, apoptotic markers, inflammatory mediators' markers, and total protein. ELISA kits were consumed to measure cardiac enzymes: CPK, CK-MB, cTnT, and cTnI; apoptotic markers: Caspase 3 and Caspase 9 and inflammatory mediators: TNF-α, IL-1β, and NFκB. All ELISA Kits were used according to the manufacturer's protocols and using a microplate reader SpectraMax i.3× (Molecular Devices, USA).”

[8] = eucalyptol control group, no ISO
[9] = pretreatment (100 and 200 mg/kg, 21 days) vs MI animals
[10] = Eucalyptol 100 mg/kg orally 21 days, then ISO
[11] = Eucalyptol 200 mg/kg orally 21 days, then ISO
[12] = Eucalyptol control group, no ISO
[13] = pretreatment 100, 200 mg/kg, 21 days, vs ISO induced MI group

CC12CCC(CC1)C(C)(C)O2 [Eucalyptol, 1,8-cineole]
TLR pathway protein content [1, 8]: no effect
post-myocardial infarction intensification of TLR pathway protein expression (TLR 2, TLR 4, MYD 88, TRIF) ([1]; pretreatment 100 and 200 mg/kg, cardiac tissue, Western blot): lessened
Bax, Bcl2, Caspase 3 and 9 [2, 8]: no effect
Bax relative mRNA expression [2, 9]: deteriorated
Bcl-2 mRNA expression [2, 9]: intensified
Caspase 3 and 9 activities [2, 9]: deteriorated
Heart Rate ([3]; Eucalyptol 100 mg/kg orally 21 days, then ISO 85 mg/kg s.c.): 294 ± 21.06 ≠ beat/min
P Wave [3, 10]: 0.015 ± 0.001 ≠ sec.
P-R interval [3, 10]: 0.212 ± 0.012 ≠ sec.
QRS complex [3, 10]: 0.038 ± 0.001 ≠ sec.
QT interval [3, 10]: 0.064 ± 0.003 ≠ sec.
R-R interval [3, 10]: 0.180 ± 0.004 ≠ sec.
ST segment [3, 10]: 0.061 ± 0.009 ≠ mV
Heart Rate ([3]; Eucalyptol 200 mg/kg orally 21 days, then ISO 85 mg/kg s.c.): 337.16 ± 14.98 ≠ beat/min
P Wave [3, 11]: 0.015 ± 0.001 ≠ sec.
P-R interval [3, 11]: 0.222 ± 0.05 ≠ sec.
QRS complex [3, 11]: 0.035 ± 0.001 ≠ sec.
QT interval [3, 11]: 0.061 ± 0.003 ≠ sec.
R-R interval [3, 11]: 0.183 ± 0.056 ≠ sec.
ST segment [3, 11]: 0.046 ± 0.009 ≠ mV
P Wave [3, 12]: 0.019 ± 0.002 s
P-R interval [3, 12]: 0.230 ± 0.012 s
QRS complex [3, 12]: 0.042 ± 0.001 s
QT interval [3, 12]: 0.047 ± 0.002 s
R-R interval [3, 12]: 0.222 ± 0.012 s
ST segment [3, 12]: 0.025 ± 0.002 mV
Heart Rate ([3]; Eucalyptol control group: eucalyptol for 3 weeks, saline s.c. instead of ISO): 398.16 ± 43.67 beat/min
heart rate and electrocardiographic (ECG) patterns [3, 8]: normal
HR as well as ECG alterations [3, 13]: reversed
infarcted area magnitude (infarct size) [4]: significant infarcted restricting action
HSP-60, IL-6 and NFκB, 200 mg/kg compared with 100 mg/kg ([5]; dose of 200 mg/kg vs 100 mg/kg): further significant reduction
TNF-α, 200 mg/kg compared with 100 mg/kg ([5]; dose of 200 mg/kg vs 100 mg/kg): non-significant difference
HSP-60 and inflammatory markers (TNF-α, IL-6 and NFκB) [5, 8]: no effect
myocardial infarction elevation in HSP 60 ([5]; pretreatment 100 and 200 mg/kg): diminished
myocardial infarction elevation in inflammatory mediators (TNF-α, IL-6 and NFκB) ([5]; pretreatment 100 and 200 mg/kg): diminished
cardiac enzymes (CPK, CK-MB, cTnT, cTnI) [6, 8]: normal
Cardiac Tropinine I (cTnI) [6, 13]: significantly diminished
Cardiac Tropinine T (cTnT) [6, 13]: significantly diminished
Creatine Kinase Myocardial Bound (CK-MB) [6, 13]: significantly diminished
Creatine Phosphokinase (CPK) [6, 13]: significantly diminished
MYD 88 relative mRNA expression level [7]: considerably (p<0.05) declined
TLR 2 relative mRNA expression level [7]: considerably (p<0.05) declined
TLR 4 relative mRNA expression level [7]: considerably (p<0.05) declined
TRIF relative mRNA expression level [7]: considerably (p<0.05) declined

From patent publication US11602519B1, “Method for preventing myocardial infarction using eucalyptol” (KING FAISAL UNIVERSITY, priority 2021, dated 2023)
